Assays:
[1] = tested on: Artemia salina nauplii; assay: Brine shrimp lethality assay; format: in vivo; conditions: 24 h, 27-28° C., triplicate
Experimental: The eggs of brine shrimp, Airtime salina (Leach), are used in monitoring bioactive compounds. The eggs are readily available in pet shops at low cost and remain viable for years in the dry state. The brine shrimp assay has advantages of being rapid (24 hrs), inexpensive, and simple. No aseptic techniques are required. It easily utilizes a large number of organisms for statistical validation and requires no special equipment and a relatively small amount of sample.
The assay was carried out with Artemia salina eggs. 50 mg of Artemia salina eggs in a beaker containing sea salt (6 g), yeast (0.9 mg) and distilled water (150 ml) were incubated at 27-28° C. for 24 hrs. The newly hatched nauplii were concentrated. From this volume, aliquots of 50 μl (approximately 18-20 nauplii) were pipette directly into a 24 well plates containing sea water (sw), −ve control (DMSO+sw), +ve control (emetine) or different concentrations of extracts (62.5-500 μg/ml). Assay was carried out in triplicate. The plates were sealed and incubated at 27-28° C. for 24 h. At the end of the 24-h incubation period, the content of each well was pipette into a watch glass individually. Survival was assessed by scoring the number of dead nauplii using a microscope. Once counts of dead nauplii had been taken, 0.5 ml of methanol was added to kill all remaining nauplii. The contents of each well were then recorded and result tabulated as (X/Y; where X number dead and Y=number of dead and alive).

[2] = tested on: angiogenesis; conditions: elicited by basic fibroblast growth factor; cited from earlier work
[3] = tested on: B16F10 solid tumor; conditions: C57BU6 mice; cited from earlier work
[4] = tested on: MDA-MB-435 tumor masses; conditions: cited from earlier work
[5] = tested on: breast cancer cells; conditions: cited from earlier work
[6] = tested on: tumor cell lines; assay: Tumor cell proliferation, oxygen biosensor; format: cell-based; conditions: DMSO, ethanol and PBS extracts; FIGS. 6, 7, 8
Experimental: The following cell lines were utilized in the tests listed above: • Leukemia/Lymphoma: K562, Raji, Jurkatt, CEM; • Breast Carcinoma MCF-7, MDA-MB-231, MD-MB-468; • Prostate Carcinoma LNCaP, PC-3; • Colorectal Carcinoma: HT-29, HCT-116; • Pancreatic Carcinoma: PANC-1; • Gliobastaoma: GL10-1.
The DMSO and ETHANOL extract was prepared by the following process: • 4 g of powder was extracted with each • the extract was evaporated utilizing a speed vacuum centrifuge • when dried the extract was re-suspended in fresh solution at 1 g/ml. • the concentration of extract used ranges from 0.1 to 100 mg/ml
The PBS solution was prepared as follows: • dissolve 1 g/ml of powder within PBS solution • the concentration of extract used ranges from 0.1 to 100 mg/ml
Referring to FIGS. 6, 7, and 8 the effect of snake extract on tumor cell proliferation utilizing the DMSO, ethanol, and PBS solutions, is respectively analyzed. The methodology used to analyze tumor cell proliferation was oxygen biosensor. With this methodology culture plates are coated with an oxygen sensitive fluorescent compound embedded in a gas-permeable and hydrophobic matrix permanently attached to the bottom of a multi-well plate. The amount of fluorescence correlates directly to the rate of oxygen consumption in the well, providing a signal that can be directly correlated to cell growth.

`CC[C@H]1CN2CCc3cc(OC)c(OC)cc3[C@@H]2C[C@@H]1C[C@H]1NCCc2cc(OC)c(OC)cc21` [Emetine] showed a mortality at 62.5 µg/mL ([1]; 62.5 μg/ml) of 58.2%, a mortality at 125 µg/mL ([1]; 125 μg/ml) of 100% and a mortality at 250 µg/mL ([1]; 250 μg/ml) of 100%. The mortality at 500 µg/mL ([1]; 500 μg/ml) was 100%.

For Rhodostomin, the angiogenesis [2] is given as “inhibit angiogenesis”, the survival [3] is given as “prolonged survival” and the tumor growth [3] is given as “suppressed tumor growth”.

For Contortrostatin, the “angiogenesis induced by breast cancer” value ([4]; immunohistochemical quantitation of vascular endothelial cells in tumor tissue) is given as “inhibiting angiogenesis induced by breast cancer”, the “inhibition of tumor growth” value ([4]; injected daily at 5 microgram per mouse to tumor masses) is given as 74% and the “cytotoxicity to cancer cells” value [5] is given as “not cytotoxic to cancer cells”. The “proliferation of the breast cancer cells” value ([5]; in vitro) was “does not inhibit proliferation”.

For `CC[C@@]1(O)C(=O)OCc2c1cc1n(c2=O)Cc2cc3ccccc3nc2-1` [Camptothecin], the “inhibition of tumor cell proliferation” value [6] was “more effective at inhibiting cell proliferation of different cell lines than the snake powder extract”.

From patent publication US20060240117A1, “Snake powder extract for treatment of cancer” (priority 2002, published 2006)
